Assay results as given in PubChem BioAssay (NCI).
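Each compound was tested at five concentrations against cells in 96-well plates for 48 hours. Here, GI50 denotes the concentration required for 50% inhibition of growth. The concentration for full growth arrest is given as TGI.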

How the values were obtained:
Experiment in all cases: NCI tumour cell line growth inhibition, 48 h
786-0 renal = system: 786-0 renal
A498 renal = system: A498 renal
A549 NSCLC = system: A549 NSCLC
ACHN renal = system: ACHN renal
BT-549 breast = system: BT-549 breast
CCRF-CEM leukemia = system: CCRF-CEM leukemia
DU-145 prostate = system: DU-145 prostate
EKVX NSCLC = system: EKVX NSCLC
HCC-2998 colon = system: HCC-2998 colon
HCT-116 colon = system: HCT-116 colon
HCT-15 colon = system: HCT-15 colon
HL-60(TB) leukemia = system: HL-60(TB) leukemia
HOP-62 NSCLC = system: HOP-62 NSCLC
HOP-92 NSCLC = system: HOP-92 NSCLC
HS 578T breast = system: HS 578T breast
HT29 colon = system: HT29 colon
IGROV1 ovarian = system: IGROV1 ovarian
KM12 colon = system: KM12 colon
LOX IMVI melanoma = system: LOX IMVI melanoma
M14 melanoma = system: M14 melanoma
MALME-3M melanoma = system: MALME-3M melanoma
MCF7 breast = system: MCF7 breast
MDA-MB-231 breast = system: MDA-MB-231 breast
MDA-MB-435 = system: MDA-MB-435
MOLT-4 leukemia = system: MOLT-4 leukemia
NCI-H226 lung = system: NCI-H226 lung
NCI-H23 lung = system: NCI-H23 lung
NCI-H460 lung = system: NCI-H460 lung
NCI-H522 lung = system: NCI-H522 lung
NCI/ADR-RES ovarian = system: NCI/ADR-RES ovarian
OVCAR-3 ovarian = system: OVCAR-3 ovarian
OVCAR-4 ovarian = system: OVCAR-4 ovarian
OVCAR-5 ovarian = system: OVCAR-5 ovarian
OVCAR-8 ovarian = system: OVCAR-8 ovarian
PC-3 prostate = system: PC-3 prostate
RXF 393 renal = system: RXF 393 renal
SF-268 CNS = system: SF-268 CNS
SF-295 CNS = system: SF-295 CNS
SF-539 CNS = system: SF-539 CNS
SK-MEL-2 melanoma = system: SK-MEL-2 melanoma
SK-MEL-28 melanoma = system: SK-MEL-28 melanoma
SK-MEL-5 melanoma = system: SK-MEL-5 melanoma
SK-OV-3 ovarian = system: SK-OV-3 ovarian
SN12C renal = system: SN12C renal
SNB-19 CNS = system: SNB-19 CNS
SNB-75 CNS = system: SNB-75 CNS
SR leukemia = system: SR leukemia
SW-620 colon = system: SW-620 colon
T-47D breast = system: T-47D breast
TK-10 renal = system: TK-10 renal
U251 CNS = system: U251 CNS
UACC-257 melanoma = system: UACC-257 melanoma
UACC-62 melanoma = system: UACC-62 melanoma
UO-31 renal = system: UO-31 renal

Q: How did the GI50 (786-0 renal) turn out when `CC(C)OC(=O)[C@H](C)NP(=O)(OC[C@H]1O[C@@H](n2ccc(=O)[nH]c2=O)[C@](C)(F)[C@@H]1O)Oc1ccccc1` (stereo partly drawn) was run?
A: > 100 µM

Q: And the TGI (786-0 renal)?
A: > 100 µM

Q: And the GI50 (A498 renal)?
A: > 100 µM

Q: And the TGI (A498 renal)?
A: > 100 µM

Q: And the GI50 (A549 NSCLC)?
A: > 100 µM

Q: What about the TGI (A549 NSCLC) of the same molecule?
A: > 100 µM

Q: And the GI50 (ACHN renal)?
A: > 100 µM

Q: What about the TGI (ACHN renal) of the same molecule?
A: > 100 µM

Q: And the GI50 (BT-549 breast)?
A: > 100 µM

Q: What about the TGI (BT-549 breast) of the same molecule?
A: > 100 µM

Q: What about the GI50 (CCRF-CEM leukemia) of the same molecule?
A: > 100 µM

Q: And the TGI (CCRF-CEM leukemia)?
A: > 100 µM

Q: What about the GI50 (DU-145 prostate) of the same molecule?
A: > 100 µM

Q: And the TGI (DU-145 prostate)?
A: > 100 µM

Q: What about the GI50 (EKVX NSCLC) of the same molecule?
A: > 100 µM

Q: And the TGI (EKVX NSCLC)?
A: > 100 µM

Q: And the GI50 (HCC-2998 colon)?
A: > 100 µM

Q: And the TGI (HCC-2998 colon)?
A: > 100 µM

Q: And the GI50 (HCT-116 colon)?
A: > 100 µM

Q: And the TGI (HCT-116 colon)?
A: > 100 µM

Q: What about the GI50 (HCT-15 colon) of the same molecule?
A: > 100 µM

Q: What about the TGI (HCT-15 colon) of the same molecule?
A: > 100 µM

Q: What about the GI50 (HL-60(TB) leukemia) of the same molecule?
A: > 100 µM

Q: And the TGI (HL-60(TB) leukemia)?
A: > 100 µM

Q: And the GI50 (HOP-62 NSCLC)?
A: > 100 µM

Q: And the TGI (HOP-62 NSCLC)?
A: > 100 µM

Q: What about the GI50 (HOP-92 NSCLC) of the same molecule?
A: > 100 µM

Q: And the TGI (HOP-92 NSCLC)?
A: > 100 µM

Q: What about the GI50 (HS 578T breast) of the same molecule?
A: > 100 µM

Q: What about the TGI (HS 578T breast) of the same molecule?
A: > 100 µM

Q: And the GI50 (HT29 colon)?
A: > 100 µM

Q: And the TGI (HT29 colon)?
A: > 100 µM

Q: And the GI50 (IGROV1 ovarian)?
A: > 100 µM

Q: What about the TGI (IGROV1 ovarian) of the same molecule?
A: > 100 µM

Q: And the GI50 (KM12 colon)?
A: > 100 µM

Q: What about the TGI (KM12 colon) of the same molecule?
A: > 100 µM

Q: What about the GI50 (LOX IMVI melanoma) of the same molecule?
A: > 100 µM

Q: What about the TGI (LOX IMVI melanoma) of the same molecule?
A: > 100 µM

Q: And the GI50 (M14 melanoma)?
A: > 100 µM

Q: What about the TGI (M14 melanoma) of the same molecule?
A: > 100 µM

Q: And the GI50 (MALME-3M melanoma)?
A: > 100 µM

Q: What about the TGI (MALME-3M melanoma) of the same molecule?
A: > 100 µM

Q: What about the GI50 (MCF7 breast) of the same molecule?
A: > 100 µM

Q: And the TGI (MCF7 breast)?
A: > 100 µM

Q: And the GI50 (MDA-MB-231 breast)?
A: > 100 µM

Q: And the TGI (MDA-MB-231 breast)?
A: > 100 µM

Q: What about the GI50 (MDA-MB-435) of the same molecule?
A: > 100 µM

Q: What about the TGI (MDA-MB-435) of the same molecule?
A: > 100 µM

Q: And the GI50 (MOLT-4 leukemia)?
A: > 100 µM

Q: And the TGI (MOLT-4 leukemia)?
A: > 100 µM

Q: What about the GI50 (NCI-H226 lung) of the same molecule?
A: > 100 µM

Q: And the TGI (NCI-H226 lung)?
A: > 100 µM

Q: And the GI50 (NCI-H23 lung)?
A: > 100 µM

Q: What about the TGI (NCI-H23 lung) of the same molecule?
A: > 100 µM

Q: And the GI50 (NCI-H460 lung)?
A: > 100 µM

Q: What about the TGI (NCI-H460 lung) of the same molecule?
A: > 100 µM

Q: And the GI50 (NCI-H522 lung)?
A: > 100 µM

Q: What about the TGI (NCI-H522 lung) of the same molecule?
A: > 100 µM

Q: What about the GI50 (NCI/ADR-RES ovarian) of the same molecule?
A: > 100 µM

Q: What about the TGI (NCI/ADR-RES ovarian) of the same molecule?
A: > 100 µM

Q: And the GI50 (OVCAR-3 ovarian)?
A: > 100 µM

Q: And the TGI (OVCAR-3 ovarian)?
A: > 100 µM

Q: What about the GI50 (OVCAR-4 ovarian) of the same molecule?
A: > 100 µM

Q: What about the TGI (OVCAR-4 ovarian) of the same molecule?
A: > 100 µM

Q: What about the GI50 (OVCAR-5 ovarian) of the same molecule?
A: > 100 µM

Q: What about the TGI (OVCAR-5 ovarian) of the same molecule?
A: > 100 µM

Q: What about the GI50 (OVCAR-8 ovarian) of the same molecule?
A: > 100 µM

Q: What about the TGI (OVCAR-8 ovarian) of the same molecule?
A: > 100 µM

Q: What about the GI50 (PC-3 prostate) of the same molecule?
A: > 100 µM

Q: And the TGI (PC-3 prostate)?
A: > 100 µM

Q: What about the GI50 (RXF 393 renal) of the same molecule?
A: > 100 µM

Q: What about the TGI (RXF 393 renal) of the same molecule?
A: > 100 µM

Q: And the GI50 (SF-268 CNS)?
A: > 100 µM

Q: And the TGI (SF-268 CNS)?
A: > 100 µM

Q: And the GI50 (SF-295 CNS)?
A: > 100 µM

Q: What about the TGI (SF-295 CNS) of the same molecule?
A: > 100 µM

Q: What about the GI50 (SF-539 CNS) of the same molecule?
A: > 100 µM

Q: And the TGI (SF-539 CNS)?
A: > 100 µM

Q: What about the GI50 (SK-MEL-2 melanoma) of the same molecule?
A: > 100 µM

Q: And the TGI (SK-MEL-2 melanoma)?
A: > 100 µM

Q: And the GI50 (SK-MEL-28 melanoma)?
A: > 100 µM

Q: What about the TGI (SK-MEL-28 melanoma) of the same molecule?
A: > 100 µM

Q: And the GI50 (SK-MEL-5 melanoma)?
A: > 100 µM

Q: What about the TGI (SK-MEL-5 melanoma) of the same molecule?
A: > 100 µM

Q: What about the GI50 (SK-OV-3 ovarian) of the same molecule?
A: > 100 µM

Q: And the TGI (SK-OV-3 ovarian)?
A: > 100 µM

Q: What about the GI50 (SN12C renal) of the same molecule?
A: > 100 µM

Q: And the TGI (SN12C renal)?
A: > 100 µM

Q: What about the GI50 (SNB-19 CNS) of the same molecule?
A: > 100 µM

Q: What about the TGI (SNB-19 CNS) of the same molecule?
A: > 100 µM

Q: What about the GI50 (SNB-75 CNS) of the same molecule?
A: > 100 µM

Q: What about the TGI (SNB-75 CNS) of the same molecule?
A: > 100 µM

Q: What about the GI50 (SR leukemia) of the same molecule?
A: > 100 µM

Q: What about the TGI (SR leukemia) of the same molecule?
A: > 100 µM

Q: What about the GI50 (SW-620 colon) of the same molecule?
A: > 100 µM

Q: And the TGI (SW-620 colon)?
A: > 100 µM

Q: And the GI50 (T-47D breast)?
A: > 100 µM

Q: And the TGI (T-47D breast)?
A: > 100 µM

Q: And the GI50 (TK-10 renal)?
A: > 100 µM

Q: What about the TGI (TK-10 renal) of the same molecule?
A: > 100 µM

Q: What about the GI50 (U251 CNS) of the same molecule?
A: > 100 µM

Q: What about the TGI (U251 CNS) of the same molecule?
A: > 100 µM

Q: And the GI50 (UACC-257 melanoma)?
A: > 100 µM

Q: And the TGI (UACC-257 melanoma)?
A: > 100 µM

Q: And the GI50 (UACC-62 melanoma)?
A: > 100 µM

Q: What about the TGI (UACC-62 melanoma) of the same molecule?
A: > 100 µM

Q: What about the GI50 (UO-31 renal) of the same molecule?
A: > 100 µM

Q: And the TGI (UO-31 renal)?
A: > 100 µM
